Experimental data reported in patent US20220233743A1, “WOUND CLOSURE ENHANCEMENT METHODS AND MATERIALS VIA MANIPULATION OR AUGMENTATION OF LIPIN-1” (Board of Supervisors of Louisiana State University and …, priority 2019, published 2022).

Test system: BMDMs
Test: Central carbon analysis of IL-4 treated BMDMs
Assay type: cell-based, mouse
Conditions: 40 ng/ml IL-4 for 4 h
Description: BMDMs from lipin-1^mKO and littermate control mice were seeded at a density of 1×10^6/ml into Falcon tubes (60818-500; VWR). Cells were either treated with or without IL-4 (40 ng/ml) for 4 h. Cells were then collected and spun at 400×g for 5 min. Cell pellets were sent to Creative Proteomics (Shirley, N.Y.) for central carbon analysis.
Macrophages need to align individual metabolic pathways to effectively respond to stimuli. The inventors wanted to understand the consequences of lipin-1 activity on immunometabolic responses in macrophages after stimulation with IL-4. WT and lipin-1 KO macrophages were stimulated with and without 40 ng/ml IL-4 for 4 h. Cell pellets were then sent to Creative Proteomics for central carbon analysis to determine the abundance of metabolites in major metabolic pathways, such as glycolysis, TCA cycle, and PPP. At baseline, lipin-1-deficient macrophages have an altered metabolism compared with WT macrophages. Lipin-1 KO BMDMs have multiple elevated glycolytic metabolites compared with WT BMDMs (FIGS. 10 and 43). […] The inventors also see an increase in metabolites within the PPP (FIG. 10). Upregulation of the PPP can result in increased NADPH (FIG. 10).
The alterations in metabolism in lipin-1-deficient BMDMs at baseline were exacerbated upon stimulation with IL-4. […] The TCA cycle generates electron carriers (NADH) that are used by the electron transport chain to generate ATP as part of oxidative phosphorylation. […] Lipin-1-deficient macrophages have an increase in the initial metabolites of the PPP, 6P-gluconate. The conversion of glucose-6P to 6P-gluconate generates NADPH, which can be used in lipid synthetic pathways (FIG. 10). […] Complete central carbon analysis can be found is found below: […]

IL-4: cytokine IL-4 (R&D Biosystems, 404-ML-050) used to stimulate macrophages; optional component of the claimed composition
6P-Gluconate, Mean (KO (lipin-1mKO) BMDMs): 0.02073
ADP, Mean (KO (lipin-1mKO) BMDMs): 0.6171
ADP-Glucose, Mean (KO (lipin-1mKO) BMDMs): 0.0026
AMP, Mean (KO (lipin-1mKO) BMDMs): 2.121
ATP, Mean (KO (lipin-1mKO) BMDMs): 0.24
Acetyl-CoA, Mean (KO (lipin-1mKO) BMDMs): 0.00588
Acetyl-Phosphate, Mean (KO (lipin-1mKO) BMDMs): 0.4686
Acetylglucosamine-1P, Mean (KO (lipin-1mKO) BMDMs): 0.1085
Acetylglucosamine-6P, Mean (KO (lipin-1mKO) BMDMs): 0.4128
Citrate, Mean (KO (lipin-1mKO) BMDMs): 17.69
DHAP, Mean (KO (lipin-1mKO) BMDMs): 0.05052
Erythrose-4P, Mean (KO (lipin-1mKO) BMDMs): 0.03703
Fructose-1,6-bisP, Mean (KO (lipin-1mKO) BMDMs): 0.02422
Fructose-1P, Mean (KO (lipin-1mKO) BMDMs): 0.00893
Fructose-6P, Mean (KO (lipin-1mKO) BMDMs): 0.05762
Fumarate, Mean (KO (lipin-1mKO) BMDMs): 15.48
GDP, Mean (KO (lipin-1mKO) BMDMs): 0.1098
GMP, Mean (KO (lipin-1mKO) BMDMs): 14.33
GTP, Mean (KO (lipin-1mKO) BMDMs): 0.0303
Glucosamine-6P, Mean (KO (lipin-1mKO) BMDMs): 0.03932
Glucose, Mean (KO (lipin-1mKO) BMDMs): 70.05
Glucose-1,6-bisP, Mean (KO (lipin-1mKO) BMDMs): 0.04135
Glucose-1P, Mean (KO (lipin-1mKO) BMDMs): 0.03615
Glucose-6P, Mean (KO (lipin-1mKO) BMDMs): 0.09843
Glyceraldehyde-3P, Mean (KO (lipin-1mKO) BMDMs): 0.1128
Glycerate-2,3P, Mean (KO (lipin-1mKO) BMDMs): 0.00052
Glycerate-2P, Mean (KO (lipin-1mKO) BMDMs): 0.00902
Glycerate-3P, Mean (KO (lipin-1mKO) BMDMs): 0.07625
Glycerol-3P, Mean (KO (lipin-1mKO) BMDMs): 0.8631
Glycolate, Mean (KO (lipin-1mKO) BMDMs): 20.92
Hs-CoA, Mean (KO (lipin-1mKO) BMDMs): 0.0443
Isocitrate, Mean (KO (lipin-1mKO) BMDMs): 0.2094
Latate, Mean (KO (lipin-1mKO) BMDMs): 1872
Malate, Mean (KO (lipin-1mKO) BMDMs): 73.43
Mannose-6P, Mean (KO (lipin-1mKO) BMDMs): 0.01255
NAD+, Mean (KO (lipin-1mKO) BMDMs): 0.3551
NADH, Mean (KO (lipin-1mKO) BMDMs): 0.3515
NADP+, Mean (KO (lipin-1mKO) BMDMs): 0.1139
NADPH, Mean (KO (lipin-1mKO) BMDMs): 0.1752
PEP, Mean (KO (lipin-1mKO) BMDMs): 0.04492
Phosphocreatine, Mean (KO (lipin-1mKO) BMDMs): 0.2338
Pyruvate, Mean (KO (lipin-1mKO) BMDMs): 35.61
Ribose-1,5bisP, Mean (KO (lipin-1mKO) BMDMs): 0.00195
Ribose-5P, Mean (KO (lipin-1mKO) BMDMs): 0.07803
Ribulose-1,5bisP, Mean (KO (lipin-1mKO) BMDMs): 0.02412
Ribulose-5P, Mean (KO (lipin-1mKO) BMDMs): 0.1828
Sedoheptulose-7P, Mean (KO (lipin-1mKO) BMDMs): 0.05303
Succinate, Mean (KO (lipin-1mKO) BMDMs): 36.15
Succinyl-CoA, Mean (KO (lipin-1mKO) BMDMs): 0.0234
UDP, Mean (KO (lipin-1mKO) BMDMs): 0.1803
UDP-Glucose, Mean (KO (lipin-1mKO) BMDMs): 0.5266
UDP-acetylglucosamine, Mean (KO (lipin-1mKO) BMDMs): 0.9395
UMP, Mean (KO (lipin-1mKO) BMDMs): 16.84
UTP, Mean (KO (lipin-1mKO) BMDMs): 4.409
cyclic-ADPR, Mean (KO (lipin-1mKO) BMDMs): 0.3267
cyclic-AMP, Mean (KO (lipin-1mKO) BMDMs): 0.0031
cyclic-UMP, Mean (KO (lipin-1mKO) BMDMs): 0.00447
α-Ketoglutarate, Mean (KO (lipin-1mKO) BMDMs): 3.985
6P-Gluconate, Mean (WT BMDMs): 0.01622
ADP, Mean (WT BMDMs): 0.8758
ADP-Glucose, Mean (WT BMDMs): 0.00298
AMP, Mean (WT BMDMs): 2.316
ATP, Mean (WT BMDMs): 0.2736
Acetyl-CoA, Mean (WT BMDMs): 0.00738
Acetyl-Phosphate, Mean (WT BMDMs): 0.496
Acetylglucosamine-1P, Mean (WT BMDMs): 0.1361
Acetylglucosamine-6P, Mean (WT BMDMs): 0.5132
Citrate, Mean (WT BMDMs): 15.89
DHAP, Mean (WT BMDMs): 0.05342
Erythrose-4P, Mean (WT BMDMs): 0.05778
Fructose-1,6-bisP, Mean (WT BMDMs): 0.0196
Fructose-1P, Mean (WT BMDMs): 0.00392
Fructose-6P, Mean (WT BMDMs): 0.06408
Fumarate, Mean (WT BMDMs): 19.48
GDP, Mean (WT BMDMs): 0.1479
GMP, Mean (WT BMDMs): 15.29
GTP, Mean (WT BMDMs): 0.04348
Glucosamine-6P, Mean (WT BMDMs): 0.04035
Glucose, Mean (WT BMDMs): 53.46
Glucose-1,6-bisP, Mean (WT BMDMs): 0.04287
Glucose-1P, Mean (WT BMDMs): 0.03848
Glucose-6P, Mean (WT BMDMs): 0.1044
Glyceraldehyde-3P, Mean (WT BMDMs): 0.1365
Glycerate-2,3P, Mean (WT BMDMs): 0.00063
Glycerate-2P, Mean (WT BMDMs): 0.00803
Glycerate-3P, Mean (WT BMDMs): 0.0653
Glycerol-3P, Mean (WT BMDMs): 0.982
Glycolate, Mean (WT BMDMs): 19.94
Hs-CoA, Mean (WT BMDMs): 0.0517
Isocitrate, Mean (WT BMDMs): 0.1146
Latate, Mean (WT BMDMs): 2685
Malate, Mean (WT BMDMs): 87.07
Mannose-6P, Mean (WT BMDMs): 0.01458
NAD+, Mean (WT BMDMs): 0.3884
NADH, Mean (WT BMDMs): 0.5159
NADP+, Mean (WT BMDMs): 0.1431
NADPH, Mean (WT BMDMs): 0.1122
PEP, Mean (WT BMDMs): 0.03792
Phosphocreatine, Mean (WT BMDMs): 0.2747
Pyruvate, Mean (WT BMDMs): 37.78
Ribose-1,5bisP, Mean (WT BMDMs): 0.00238
Ribose-5P, Mean (WT BMDMs): 0.08472
Ribulose-1,5bisP, Mean (WT BMDMs): 0.02488
Ribulose-5P, Mean (WT BMDMs): 0.2631
Sedoheptulose-7P, Mean (WT BMDMs): 0.04902
Succinate, Mean (WT BMDMs): 52.07
Succinyl-CoA, Mean (WT BMDMs): 0.02933
UDP, Mean (WT BMDMs): 0.2351
UDP-Glucose, Mean (WT BMDMs): 0.5467
UDP-acetylglucosamine, Mean (WT BMDMs): 1.096
UMP, Mean (WT BMDMs): 18
UTP, Mean (WT BMDMs): 5.48
cyclic-ADPR, Mean (WT BMDMs): 0.3519
cyclic-AMP, Mean (WT BMDMs): 0.00362
cyclic-UMP, Mean (WT BMDMs): 0.00372
glycolytic and TCA cycle metabolites on IL-4 stimulation (WT BMDMs): significant increase
α-Ketoglutarate, Mean (WT BMDMs): 3.785
TCA metabolite succinate on IL-4 stimulation (lipin-1 KO macrophages): decrease
isocitrate on IL-4 stimulation (lipin-1 KO macrophages): significant increase
